{"source": "paper PMC9653409", "about": "“Generative deep learning enables the discovery of a potent and selective RIPK1 inhibitor” (Nature Communications, 2022)", "experiment_in_all_cases": "Kinase inhibitory activity profiling of RI-962@10 µM (406 kinases, Eurofins)", "assay_type_in_all_cases": "biochemical", "key": {"[1]": {"biological_target": "panel of human kinases (kinase named in endpoint) (Homo sapiens, UniProt P42681)", "settings": "10 µM; read-out: Activity (%), Txk(h)", "in_short": "(§1)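 Radiometric filter-binding kinase assays: enzyme preincubated 15 min with compound in 8 mM MOPS pH 7.0, 0.2 mM EDTA, 250 μM peptide substrate, 10 mM magnesium acetate, 10 μM [γ-33P]-ATP. Reaction started with Mg/ATP, run 40 min at room temperature, stopped with phosphoric acid; 33P incorporation read by scintillation counting. Other kinases by similar protocols.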"}, "[2]": {"biological_target": "panel of human kinases (kinase named in endpoint) (Homo sapiens, UniProt Q9HBY8)", "sequence (Q9HBY8 whole entry)": "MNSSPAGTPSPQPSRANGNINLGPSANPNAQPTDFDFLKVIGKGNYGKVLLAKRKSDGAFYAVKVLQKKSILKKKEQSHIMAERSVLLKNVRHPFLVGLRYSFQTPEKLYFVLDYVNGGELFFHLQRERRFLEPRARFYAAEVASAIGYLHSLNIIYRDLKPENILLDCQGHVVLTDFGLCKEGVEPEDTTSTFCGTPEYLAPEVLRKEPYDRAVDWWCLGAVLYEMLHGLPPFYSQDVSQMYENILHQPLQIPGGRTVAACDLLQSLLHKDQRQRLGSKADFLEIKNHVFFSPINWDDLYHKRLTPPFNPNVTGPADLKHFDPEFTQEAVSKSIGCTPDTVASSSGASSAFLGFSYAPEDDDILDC", "settings": "10 µM; read-out: Activity (%), SGK2(h)", "in_short": "as §1"}, "[3]": {"biological_target": "panel of human kinases (kinase named in endpoint) (Homo sapiens, UniProt P51451)", "sequence (P51451 whole entry)": "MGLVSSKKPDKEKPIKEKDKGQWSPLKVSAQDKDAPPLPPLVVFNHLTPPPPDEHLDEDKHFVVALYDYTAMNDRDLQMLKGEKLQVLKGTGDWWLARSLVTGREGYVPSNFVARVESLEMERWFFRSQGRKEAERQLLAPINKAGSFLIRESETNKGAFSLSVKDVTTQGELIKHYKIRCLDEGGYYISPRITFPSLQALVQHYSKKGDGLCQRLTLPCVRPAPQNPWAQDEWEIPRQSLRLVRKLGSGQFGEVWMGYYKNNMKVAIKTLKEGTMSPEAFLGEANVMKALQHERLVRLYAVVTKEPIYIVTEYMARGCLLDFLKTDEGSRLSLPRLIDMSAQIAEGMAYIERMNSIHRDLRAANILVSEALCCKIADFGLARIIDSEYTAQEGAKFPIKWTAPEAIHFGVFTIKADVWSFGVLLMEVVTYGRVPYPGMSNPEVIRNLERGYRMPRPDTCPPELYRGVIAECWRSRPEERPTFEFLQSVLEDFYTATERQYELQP", "settings": "10 µM; read-out: Activity (%), Blk(h)", "in_short": "as §1"}, "[4]": {"biological_target": "panel of human kinases (kinase named in endpoint) (Homo sapiens, UniProt P12931)", "sequence (P12931 whole entry)": "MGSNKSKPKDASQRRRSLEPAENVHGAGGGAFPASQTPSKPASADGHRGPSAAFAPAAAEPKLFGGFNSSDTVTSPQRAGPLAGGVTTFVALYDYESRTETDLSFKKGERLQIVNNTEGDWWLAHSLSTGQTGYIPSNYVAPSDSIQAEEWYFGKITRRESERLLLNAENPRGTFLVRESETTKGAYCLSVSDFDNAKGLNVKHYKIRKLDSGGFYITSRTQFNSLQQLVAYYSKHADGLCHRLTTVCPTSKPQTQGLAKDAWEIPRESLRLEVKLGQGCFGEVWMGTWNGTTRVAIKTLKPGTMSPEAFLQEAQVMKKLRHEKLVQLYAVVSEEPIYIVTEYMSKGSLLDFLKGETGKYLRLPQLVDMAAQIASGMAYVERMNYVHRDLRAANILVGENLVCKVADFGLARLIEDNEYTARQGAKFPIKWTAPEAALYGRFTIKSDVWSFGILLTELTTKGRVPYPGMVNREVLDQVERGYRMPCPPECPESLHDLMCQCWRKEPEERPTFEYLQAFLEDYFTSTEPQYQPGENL", "settings": "10 µM", "in_short": "as §1"}, "[5]": {"biological_target": "panel of human kinases (kinase named in endpoint) (Homo sapiens, UniProt Q15303)", "settings": "10 µM; read-out: Activity (%), ErbB4(h)", "in_short": "as §1"}, "[6]": {"biological_target": "panel of human kinases (kinase named in endpoint) (Homo sapiens, UniProt P00533)", "settings": "10 µM; read-out: Activity (%), EGFR(h)", "in_short": "as §1"}, "[7]": {"biological_target": "panel of human kinases (kinase named in endpoint) (Homo sapiens, UniProt O00418)", "settings": "10 µM; read-out: Activity (%), eEF-2K(h)", "in_short": "as §1"}, "[8]": {"biological_target": "panel of human kinases (kinase named in endpoint) (Homo sapiens, UniProt Q9BYT3)", "settings": "10 µM; read-out: Activity (%), STK33(h)", "in_short": "as §1"}, "[9]": {"biological_target": "panel of human kinases (kinase named in endpoint) (Homo sapiens, UniProt Q6DT37)", "settings": "10 µM; read-out: Activity (%), MRCKγ(h)", "in_short": "as §1"}, "[10]": {"biological_target": "panel of human kinases (kinase named in endpoint) (Homo sapiens, UniProt P31749)", "settings": "10 µM; read-out: Activity (%), PKBα(h)", "in_short": "as §1"}, "[11]": {"biological_target": "panel of human kinases (kinase named in endpoint) (Homo sapiens, UniProt P54762)", "settings": "10 µM; read-out: Activity (%), EphB1(h)", "in_short": "as §1"}, "[12]": {"biological_target": "panel of human kinases (kinase named in endpoint) (Homo sapiens, UniProt P48736)", "settings": "10 µM; read-out: Activity (%), PI3 Kinase (p120g)(h)", "in_short": "as §1"}, "[13]": {"biological_target": "panel of human kinases (kinase named in endpoint) (Homo sapiens, UniProt P10721, D816V)", "settings": "10 µM; read-out: Activity (%), cKit(D816V)(h)", "in_short": "as §1"}, "[14]": {"biological_target": "panel of human kinases (kinase named in endpoint) (Homo sapiens, UniProt Q15418)", "settings": "10 µM; read-out: Activity (%), Rsk1(h)", "in_short": "as §1"}, "[15]": {"biological_target": "panel of human kinases (kinase named in endpoint) (Homo sapiens, UniProt P43250)", "settings": "10 µM; read-out: Activity (%), GRK6(h)", "in_short": "as §1"}, "[16]": {"biological_target": "panel of human kinases (kinase named in endpoint) (Homo sapiens, UniProt Q96J92)", "sequence (Q96J92 whole entry)": "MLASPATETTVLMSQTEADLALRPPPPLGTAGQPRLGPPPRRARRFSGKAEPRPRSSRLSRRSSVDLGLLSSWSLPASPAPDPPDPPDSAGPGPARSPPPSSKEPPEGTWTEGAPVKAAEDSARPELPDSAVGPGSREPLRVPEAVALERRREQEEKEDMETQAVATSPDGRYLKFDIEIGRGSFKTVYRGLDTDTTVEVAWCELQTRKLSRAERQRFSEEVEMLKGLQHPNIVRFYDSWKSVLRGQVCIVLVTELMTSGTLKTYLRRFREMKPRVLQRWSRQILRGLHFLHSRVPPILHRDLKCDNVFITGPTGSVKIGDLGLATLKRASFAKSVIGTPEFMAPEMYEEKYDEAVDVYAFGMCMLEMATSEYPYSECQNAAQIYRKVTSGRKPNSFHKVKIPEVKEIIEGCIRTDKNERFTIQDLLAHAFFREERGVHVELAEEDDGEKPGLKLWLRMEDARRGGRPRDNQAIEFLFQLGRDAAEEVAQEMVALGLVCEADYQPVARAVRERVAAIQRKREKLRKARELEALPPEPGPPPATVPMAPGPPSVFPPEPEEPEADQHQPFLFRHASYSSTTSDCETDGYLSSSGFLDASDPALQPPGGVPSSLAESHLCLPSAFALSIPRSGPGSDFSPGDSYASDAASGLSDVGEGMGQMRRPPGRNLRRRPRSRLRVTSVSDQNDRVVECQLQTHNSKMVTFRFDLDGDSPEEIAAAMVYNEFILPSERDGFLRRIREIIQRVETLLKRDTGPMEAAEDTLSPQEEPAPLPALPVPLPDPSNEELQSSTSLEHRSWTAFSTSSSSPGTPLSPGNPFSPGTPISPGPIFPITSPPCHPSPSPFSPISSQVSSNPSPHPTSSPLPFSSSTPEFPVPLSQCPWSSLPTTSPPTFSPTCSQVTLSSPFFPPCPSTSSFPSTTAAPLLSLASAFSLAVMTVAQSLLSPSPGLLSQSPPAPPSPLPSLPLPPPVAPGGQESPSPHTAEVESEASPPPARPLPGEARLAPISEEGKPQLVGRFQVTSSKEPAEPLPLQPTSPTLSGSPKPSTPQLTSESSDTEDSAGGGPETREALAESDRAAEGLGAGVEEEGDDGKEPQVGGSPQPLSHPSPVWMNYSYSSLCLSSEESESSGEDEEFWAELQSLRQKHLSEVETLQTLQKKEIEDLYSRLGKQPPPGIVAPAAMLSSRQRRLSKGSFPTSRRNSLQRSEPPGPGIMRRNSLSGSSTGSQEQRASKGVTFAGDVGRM", "settings": "10 µM; read-out: Activity (%), WNK4(h)", "in_short": "as §1"}, "[17]": {"biological_target": "panel of human kinases (kinase named in endpoint) (Homo sapiens, UniProt Q14680)", "settings": "10 µM; read-out: Activity (%), MELK(h)", "in_short": "as §1"}, "[18]": {"biological_target": "panel of human kinases (kinase named in endpoint) (Homo sapiens, UniProt P06213)", "sequence (P06213 28-1382)": "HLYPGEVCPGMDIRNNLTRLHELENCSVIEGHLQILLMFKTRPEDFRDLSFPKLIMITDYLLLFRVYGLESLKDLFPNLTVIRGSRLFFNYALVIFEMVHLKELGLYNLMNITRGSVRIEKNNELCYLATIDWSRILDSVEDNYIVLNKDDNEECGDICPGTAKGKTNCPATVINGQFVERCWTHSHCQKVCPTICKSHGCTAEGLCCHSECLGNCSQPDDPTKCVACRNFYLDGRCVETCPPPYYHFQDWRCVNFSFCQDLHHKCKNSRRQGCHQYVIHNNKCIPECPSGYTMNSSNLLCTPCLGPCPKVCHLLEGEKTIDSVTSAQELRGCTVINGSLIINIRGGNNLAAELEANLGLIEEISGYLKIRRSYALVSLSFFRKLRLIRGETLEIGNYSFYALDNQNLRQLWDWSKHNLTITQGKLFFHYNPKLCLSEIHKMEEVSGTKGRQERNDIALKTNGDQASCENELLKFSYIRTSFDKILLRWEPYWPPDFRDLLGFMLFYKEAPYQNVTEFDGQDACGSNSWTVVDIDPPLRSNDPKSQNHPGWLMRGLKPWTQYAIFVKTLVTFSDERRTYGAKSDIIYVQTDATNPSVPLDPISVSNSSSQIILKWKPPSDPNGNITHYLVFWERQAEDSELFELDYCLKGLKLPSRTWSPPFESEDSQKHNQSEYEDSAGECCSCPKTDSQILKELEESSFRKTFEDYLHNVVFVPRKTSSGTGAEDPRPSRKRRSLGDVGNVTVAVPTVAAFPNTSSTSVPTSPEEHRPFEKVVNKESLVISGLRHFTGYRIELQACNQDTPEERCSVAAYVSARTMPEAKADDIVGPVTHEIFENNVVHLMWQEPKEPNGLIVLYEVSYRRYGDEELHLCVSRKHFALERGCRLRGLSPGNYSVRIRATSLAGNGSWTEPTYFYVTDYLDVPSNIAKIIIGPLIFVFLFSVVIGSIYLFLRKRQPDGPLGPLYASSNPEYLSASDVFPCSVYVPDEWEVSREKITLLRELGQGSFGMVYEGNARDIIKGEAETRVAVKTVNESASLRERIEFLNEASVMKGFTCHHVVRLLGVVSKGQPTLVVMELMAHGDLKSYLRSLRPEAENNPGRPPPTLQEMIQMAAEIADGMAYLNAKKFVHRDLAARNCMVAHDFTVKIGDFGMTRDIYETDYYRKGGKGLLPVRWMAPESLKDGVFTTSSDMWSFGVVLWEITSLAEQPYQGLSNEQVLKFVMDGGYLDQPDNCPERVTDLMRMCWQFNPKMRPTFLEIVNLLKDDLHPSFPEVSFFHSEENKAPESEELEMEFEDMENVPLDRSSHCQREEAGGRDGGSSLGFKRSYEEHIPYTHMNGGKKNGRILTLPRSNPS", "settings": "10 µM", "in_short": "as §1"}, "[19]": {"biological_target": "panel of human kinases (kinase named in endpoint) (Homo sapiens, UniProt Q5TCY1)", "settings": "10 µM; read-out: Activity (%), TTBK1(h)", "in_short": "as §1"}, "[20]": {"biological_target": "panel of human kinases (kinase named in endpoint) (Homo sapiens, UniProt Q9BZL6)", "settings": "10 µM; read-out: Activity (%), PKD2(h)", "in_short": "as §1"}, "[21]": {"biological_target": "panel of human kinases (kinase named in endpoint) (Homo sapiens, UniProt P51812)", "settings": "10 µM; read-out: Activity (%), Rsk2(h)", "in_short": "as §1"}, "[22]": {"biological_target": "panel of human kinases (kinase named in endpoint) (Homo sapiens, UniProt Q9Y243)", "sequence (Q9Y243 whole entry)": "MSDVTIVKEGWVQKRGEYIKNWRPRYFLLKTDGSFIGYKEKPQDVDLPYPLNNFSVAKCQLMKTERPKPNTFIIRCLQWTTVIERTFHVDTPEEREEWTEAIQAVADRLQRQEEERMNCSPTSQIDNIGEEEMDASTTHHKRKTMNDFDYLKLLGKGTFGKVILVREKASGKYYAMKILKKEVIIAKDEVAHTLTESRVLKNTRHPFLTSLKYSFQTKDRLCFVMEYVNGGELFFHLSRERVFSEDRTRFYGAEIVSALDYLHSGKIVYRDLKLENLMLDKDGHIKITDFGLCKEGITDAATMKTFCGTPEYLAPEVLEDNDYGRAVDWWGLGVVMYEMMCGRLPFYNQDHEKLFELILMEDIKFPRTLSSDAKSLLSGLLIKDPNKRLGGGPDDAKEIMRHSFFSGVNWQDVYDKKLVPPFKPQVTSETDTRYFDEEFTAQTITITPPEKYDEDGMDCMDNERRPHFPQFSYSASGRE", "settings": "10 µM; read-out: Activity (%), PKBγ(h)", "in_short": "as §1"}, "[23]": {"biological_target": "panel of human kinases (kinase named in endpoint) (Homo sapiens, UniProt P11802)", "settings": "10 µM; read-out: Activity (%), CDK4/cyclinD3(h)", "in_short": "as §1"}, "[24]": {"biological_target": "panel of human kinases (kinase named in endpoint) (Homo sapiens, UniProt Q9H2X6)", "settings": "10 µM; read-out: Activity (%), HIPK2(h)", "in_short": "as §1"}, "[25]": {"biological_target": "panel of human kinases (kinase named in endpoint) (Homo sapiens, UniProt Q8IVW4)", "sequence (Q8IVW4 whole entry)": "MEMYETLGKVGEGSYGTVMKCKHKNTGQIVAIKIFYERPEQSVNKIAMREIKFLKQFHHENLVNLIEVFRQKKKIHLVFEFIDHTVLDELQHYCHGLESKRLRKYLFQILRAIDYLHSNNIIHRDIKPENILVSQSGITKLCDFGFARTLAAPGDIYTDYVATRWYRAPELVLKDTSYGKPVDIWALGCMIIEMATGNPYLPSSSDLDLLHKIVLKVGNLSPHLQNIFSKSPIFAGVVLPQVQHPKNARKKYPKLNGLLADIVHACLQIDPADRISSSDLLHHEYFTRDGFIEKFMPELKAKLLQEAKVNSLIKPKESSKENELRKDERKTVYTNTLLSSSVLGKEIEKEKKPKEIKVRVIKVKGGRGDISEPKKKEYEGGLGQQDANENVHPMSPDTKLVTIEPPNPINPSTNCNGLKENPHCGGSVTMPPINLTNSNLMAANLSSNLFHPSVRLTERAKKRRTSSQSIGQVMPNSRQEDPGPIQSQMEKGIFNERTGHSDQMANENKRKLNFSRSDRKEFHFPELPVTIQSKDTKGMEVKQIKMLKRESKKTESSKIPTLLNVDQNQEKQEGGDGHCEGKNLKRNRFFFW", "settings": "10 µM; read-out: Activity (%), CDKL3(h)", "in_short": "as §1"}}, "note": "Like-named read-outs stand apart in the source and are kept apart here.", "data": [{"smiles": "CC(C)C(=O)Nc1nc2cc(-c3ccc4c(c3)c(C(=O)NC(C)c3ccccc3)cn4C)ccn2n1", "note": "(stereo not drawn) [RI-962]", "values": [{"measurement": "activity at 10 µM", "setting": "[1]", "result": 94, "unit": "%"}, {"measurement": "activity at 10 µM", "setting": "[2]", "result": 120, "unit": "%"}, {"measurement": "activity at 10 µM", "setting": "[3]", "result": 96, "unit": "%"}, {"measurement": "activity at 10 µM", "setting": "[4]; read-out: Activity (%), Src(1-530)(h)", "result": 95, "unit": "%"}, {"measurement": "activity at 10 µM", "setting": "[4]; read-out: Activity (%), cSRC(h)", "result": 100, "unit": "%"}, {"measurement": "activity at 10 µM", "setting": "[5]", "result": 98, "unit": "%"}, {"measurement": "activity at 10 µM", "setting": "[6]", "result": 94, "unit": "%"}, {"measurement": "activity at 10 µM", "setting": "[7]", "result": 112, "unit": "%"}, {"measurement": "activity at 10 µM", "setting": "[8]", "result": 85, "unit": "%"}, {"measurement": "activity at 10 µM", "setting": "[9]", "result": 83, "unit": "%"}, {"measurement": "activity at 10 µM", "setting": "[10]", "result": 80, "unit": "%"}, {"measurement": "activity at 10 µM", "setting": "[11]", "result": 111, "unit": "%"}, {"measurement": "activity at 10 µM", "setting": "[12]", "result": 80, "unit": "%"}, {"measurement": "activity at 10 µM", "setting": "[13]", "result": 97, "unit": "%"}, {"measurement": "activity at 10 µM", "setting": "[14]", "result": 120, "unit": "%"}, {"measurement": "activity at 10 µM", "setting": "[15]", "result": 108, "unit": "%"}, {"measurement": "activity at 10 µM", "setting": "[16]", "result": 80, "unit": "%"}, {"measurement": "activity at 10 µM", "setting": "[17]", "result": 95, "unit": "%"}, {"measurement": "activity at 10 µM", "setting": "[18]; read-out: Activity (%), IR(h)", "result": 103, "unit": "%"}, {"measurement": "activity at 10 µM", "setting": "[18]; read-out: Activity (%), IR(h), activated", "result": 89, "unit": "%"}, {"measurement": "activity at 10 µM", "setting": "[19]", "result": 92, "unit": "%"}, {"measurement": "activity at 10 µM", "setting": "[20]", "result": 98, "unit": "%"}, {"measurement": "activity at 10 µM", "setting": "[21]", "result": 106, "unit": "%"}, {"measurement": "activity at 10 µM", "setting": "[22]", "result": 95, "unit": "%"}, {"measurement": "activity at 10 µM", "setting": "[23]", "result": 75, "unit": "%"}, {"measurement": "activity at 10 µM", "setting": "[24]", "result": 72, "unit": "%"}, {"measurement": "activity at 10 µM", "setting": "[25]", "result": 84, "unit": "%"}]}]}
